Patent US20240165112A1, “THERAPY FOR THE TREATMENT OF CANCER” (Bristol-Myers Squibb Company, priority 2022, published 2024)

Key:
[1] = system: PAXF2131 organoid, Pancreatic cancer; assay: 3D clonogenic assay in patient derived organoids; assay type: cell-based, human
Protocol: (§1) Five tumor cell lines (4T1.2, A549, EMT6, NCI-H460, and HT29) were treated with a range of paclitaxel or 5-FU concentrations in the presence of dimethlylsulfoxide (DMSO), 5 μM Compound 1, or 20 μM Compound 1. Cells were imaged 4 days after treatment and percent confluence was assessed by image quantification. EC50 values for cell confluence were used to assess chemotherapy potency. Eleven patient-derived tumor organoids (MAXFTN449, MAXFTN2990, PAXF1657, PAXF2131, CXF1256, CXF2129, CXF2061, LXFE2478, LXFE690, LXFA677, LXFA644) were seeded in a 3D matrix and treated with a range of paclitaxel, 5-FU, SN38, Gemcitabine, oxaliplatin, and carboplatin concentrations in the presence of DMSO, 5 μM Compound 1, or 20 μM Compound 1. After 8 to 13 days in culture, colonies were stained, imaged, and counted. A dose response curve was generated for chemotherapy alone or chemotherapy in combination with 5 or 20 μM Compound 1. Combination activity was defined as a percentage of the area under the chemotherapy dose response curve (cAUC) for Compound 1 combination groups compared to the cAUC of chemotherapy alone.
(§2) For combination experiments, working stock solutions of all compounds were prepared in DMSO at concentrations of 660-fold the highest test concentration used and stored at −20° C. Platin compounds were prepared freshly on each treatment day. On each day of an experiment, an aliquot of the working stock solutions was used and stored at room temperature prior to and during treatment. First, 1:2 dilutions of 660-fold concentrated working stocks were prepared in DMSO (in case of monotherapy controls), or equal amounts of the compound working stocks were mixed (in case of drug combinations). Then, different dilutions of these 330-fold concentrated solutions were prepared in DMSO to give an 8×2 matrix combination layout with conditions. The DMSO dilutions were further diluted […] into cell culture medium (IMDM, supplemented with 20% (v/v) fetal bovine serum, and 50 μg/mL gentamicin) in an intermediate dilution plate. Finally, 10 μL taken from the intermediate dilution plate were transferred to 140 μL of cells and medium per well of the final assay plate. Thus, the DMSO dilutions used for the mono- and the combination-treatment were diluted 1:660, and the DMSO concentration in the assay was […].
(§3) Tumors were passaged as subcutaneous xenografts in NMRI nu/nu mice. At a tumor volume of 400 to 1000 mm^3, tumor-bearing mice were euthanized, and tumors were collected under sterile conditions without delay. Tumors were mechanically disaggregated and subsequently incubated with an enzyme cocktail consisting of collagenase type IV (41 U/mL), DNase I (125 U/mL), hyaluronidase type III (100 U/mL), and dispase II (1 U/mL) in RPMI 1640 medium at 37° C. for 60 to 120 minutes. Cells were passed through sieves of 100 μm and 40 μm mesh size, and washed with RPMI 1640 medium. The percentage of viable cells was determined in a Neubauer-hemocytometer using trypan blue exclusion. Aliquots of the cells were frozen down and stored in liquid nitrogen vapor phase. On each day of an experiment, a frozen aliquot of tumor cells was thawed and used for preparation of assay plates.
(§4) The clonogenic assay was carried out in a 96 well plate format using ultra low attachment plates. For each test, plates were prepared as follows: each test well contained a layer of semi-solid medium with tumor cells (50 μL), and a second layer of medium supernatant with or without test compound (100 μL). The cell layer consisted of […] to 12.5×10^3 tumor cells per well, which were seeded in 50 μL/well cell culture medium (IMDM, supplemented with 20% (v/v) fetal bovine serum, 50 μg/mL gentamicin, and 0.4% (w/v) agar). After 24 hours, the soft-agar layer was covered with 90 μL of the same culture medium without agar, and 10 μL of control medium or test compound after serial dilution in DMSO for the duration of the experiment (continuous exposure, 100 μL drug overlay).

[2] = system: MAXFTN449 organoid, breast cancer (triple negative); assay: 3D clonogenic assay in patient derived organoids; assay type: cell-based, human
Protocol: as §1, §2, §3, §4

[3] = system: CXF2129 organoid, colon cancer; assay: 3D clonogenic assay in patient derived organoids; assay type: cell-based, human
Protocol: as §1, §2, §3, §4

[4] = system: PAXF1657 organoid, pancreatic cancer; assay: 3D clonogenic assay in patient derived organoids; assay type: cell-based, human
Protocol: as §1, §2, §3, §4

[5] = system: CXF1256 organoid, colon cancer; assay: 3D clonogenic assay in patient derived organoids; assay type: cell-based, human
Protocol: as §1, §2, §3, §4

[6] = system: CXF2061 organoid, colon cancer; assay: 3D clonogenic assay in patient derived organoids; assay type: cell-based, human
Protocol: as §1, §2, §3, §4

[7] = system: MAXFTN2990 organoid, breast cancer (triple negative); assay: 3D clonogenic assay in patient derived organoids; assay type: cell-based, human
Protocol: as §1, §2, §3, §4

EMT6 cell line = assay: 2D cell line viability assay (cell confluence); assay type: cell-based, murine; settings: Mus musculus, EMT6, 96 h, 4 days
From the text: (§5) FIGS. 4A-4E illustrate the effects of Compound 1 on the Potency of Paclitaxel in a 2D Cell Line Viability Assay. […] Data points indicate mean and Standard Deviation of 2 biological replicates. Graphs are representative of at least 2 independent experiments. […] Abbreviations: DMSO, dimethylsulfoxide.

4T1.2 cell line = assay: 2D cell line viability assay (cell confluence); assay type: cell-based, murine; settings: Mus musculus, 4T1.2, 96 h
From the text: as §5

NCI-H460 cell line = assay: 2D cell line viability assay (cell confluence); assay type: cell-based; settings: Homo sapiens, NCI-H460, 96 h, 4 days
From the text: as §5

A549 cell line = assay: 2D cell line viability assay (cell confluence); assay type: cell-based; settings: Homo sapiens, A549, 96 h, 4 days
From the text: as §5

HT29 cell line = assay: 2D cell line viability assay (cell confluence); assay type: cell-based; settings: Homo sapiens, HT-29, 96 h, 4 days
From the text: as §5

[8] = system: Five tumor cell lines (4T1.2, A549, EMT6, NCI-H460, and HT29)
Protocol: as §1

[9] = chemotherapy dose titration + 5 μM Compound 1 vs chemotherapy alone
[10] = chemotherapy dose titration + 20 μM Compound 1 vs chemotherapy alone
[11] = in the presence of 5 μM Compound 1
[12] = in the presence of 20 μM Compound 1

EC50 (4T1.2 cell line; 4 days after treatment, in the absence of Compound 1): 0.57 µM | EC50 (4T1.2 cell line; 4 days, in the presence of 5 μM Compound 1): 0.5 µM | EC50 (4T1.2 cell line; 4 days, in the presence of 20 μM Compound 1): 0.49 µM | EC50 (NCI-H460 cell line; in the absence of Compound 1): 2.6 µM | EC50 (NCI-H460 cell line; [11]): 1.6 µM | EC50 (NCI-H460 cell line; [12]): 1.7 µM | EC50 (A549 cell line; in the absence of Compound 1): 2.4 µM | EC50 (A549 cell line; [11]): 2.6 µM | EC50 (A549 cell line; [12]): 1.5 µM | EC50 (HT29 cell line; in the absence of Compound 1): 2.5 µM | EC50 (HT29 cell line; [11]): 2.5 µM | EC50 (HT29 cell line; [12]): 1.6 µM | potency of 5-FU in the presence of Compound 1 relative to 5-FU potency in the absence of Compound 1 [8]: ≤ 2 fold
Structure (SMILES): O=c1[nH]cc(F)c(=O)[nH]1 [Compound 5-FU, 5-Fluorouracil]
Combination activity 5 μM Compound 1 (cAUC % reduction) [1, 9]: 52% | Combination activity 20 μM Compound 1 (cAUC % reduction) [1, 10]: 67% | Combination activity 5 μM Compound 1 (cAUC % reduction) [2, 9]: 29% | Combination activity 20 μM Compound 1 (cAUC % reduction) [2, 10]: 14% | Combination activity 5 μM Compound 1 (cAUC % reduction) [3, 9]: 42% | Combination activity 20 μM Compound 1 (cAUC % reduction) [3, 10]: 31% | Combination activity 5 μM Compound 1 (cAUC % reduction) [4, 9]: 32% | Combination activity 20 μM Compound 1 (cAUC % reduction) [4, 10]: 32% | Combination activity 5 μM Compound 1 (cAUC % reduction) [5, 9]: 78% | Combination activity 20 μM Compound 1 (cAUC % reduction) [5, 10]: 79% | Combination activity 5 μM Compound 1 (cAUC % reduction) [6, 9]: 25% | Combination activity 20 μM Compound 1 (cAUC % reduction) [6, 10]: 18% | Combination activity 5 μM Compound 1 (cAUC % reduction) [7, 9]: −25% | Combination activity 20 μM Compound 1 (cAUC % reduction) [7, 10]: 8% | EC50 (EMT6 cell line; in the absence of Compound 1): 2.7 µM | EC50 (EMT6 cell line; [11]): 2.5 µM | EC50 (EMT6 cell line; [12]): 2.6 µM
